Data: patent US8119805B2, “Substituted disulfonamide compounds” (Gruenenthal GmbH, priority 2008, dated 2012)
Where a name gives a salt, the structure may show the parent alone.

Columns and labels:
[1] = target: T1, human B1R receptor (hB1R) (Homo sapiens, UniProt P46663); assay: Functional investigation on the bradykinin 1 receptor (B1R), FLIPR Ca2+ assay, hB1R cells; assay type: cell-based; settings: test substance 10 μM; CHO K1 cells transfected with human B1R gene; Fluo-4 Ca2+ signal; agonist Lys-Des-Arg9-bradykinin at EC80; % of maximum achievable inhibition; read-out: B1R antagonism, human [10 μM] % inhibition
T1 construct: expressed in transfected cells; host or cells: CHO K1 cells
T1 sequence (P46663 1-353): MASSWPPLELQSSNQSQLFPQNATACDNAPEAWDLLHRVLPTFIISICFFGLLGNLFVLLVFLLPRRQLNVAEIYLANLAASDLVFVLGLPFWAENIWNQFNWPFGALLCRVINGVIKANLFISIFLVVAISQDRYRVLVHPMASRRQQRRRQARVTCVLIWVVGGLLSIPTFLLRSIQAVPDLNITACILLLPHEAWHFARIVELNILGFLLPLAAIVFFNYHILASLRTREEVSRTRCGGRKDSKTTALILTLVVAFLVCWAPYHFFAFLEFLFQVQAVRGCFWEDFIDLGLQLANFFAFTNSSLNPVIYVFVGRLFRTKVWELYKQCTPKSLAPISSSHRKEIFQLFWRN
Description: (§1) The agonistic or antagonistic action of substances on the bradykinin 1 receptor (B1R) of the human and rat species can be quantified with ectopically expressing cell lines (CHO K1 cells) and with the aid of a Ca^2+-sensitive dyestuff (Fluo-4) in a fluorescent imaging plate reader (FLIPR). The value in % activation is based on the Ca^2+ signal after addition of Lys-Des-[…]-bradykinin (0.5 nM) or Des-[…]-bradykinin (100 nM). Antagonists lead to a suppression of the Ca^2+inflow after addition of the agonist. % inhibition compared with the maximum achievable inhibition is stated. The agonistic or antagonistic action of substances on the bradykinin 1 receptor (B1R) of the human and rat species can be determined with the following assay. In accordance with this assay, the Ca^2+ inflow through the channel is quantified with the aid of a Ca^2+-sensitive dyestuff (type Fluo-4, Molecular Probes Europe BV, Leiden, Holland) in a fluorescent imaging plate reader (FLIPR, Molecular Devices, Sunnyvale, USA). Chinese hamster ovary cells (CHO K1 cells) transfected stably with the human B1R gene (hB1R cells) or the B1R gene of the rat (rB1R cells) are used. For functional studies, these cells are plated out on black 96-well plates with a clear base (BD Biosciences, Heidelberg, Germany or Greiner, Frickenhausen, Germany) in a density of 20,000-35,000 cells/well. The cells are left overnight at 37° C. and 5% CO2 in culture medium (hB1R cells: Nutrient Mixture Ham's F12, Gibco Invitrogen GmbH, Karlsruhe, Germany or DMEM, Sigma-Aldrich, Taufkirchen, Germany; rB1R cells: D-MEM/F12, Gibco Invitrogen GmbH, Karlsruhe, Germany) with 10 vol. % FBS (foetal bovine serum, Gibco Invitrogen GmbH, Karlsruhe, Germany or PAN Biotech GmbH, Aidenbach, Germany). On the following day, the cells are loaded for 60 min at 37° C. with 2.13 μM Fluo-4 (Molecular Probes Europe BV, Leiden Holland) in HBSS buffer (Hank's buffered saline solution, Gibco Invitrogen GmbH, Karlsruhe, Germany) with 2.5 mM probenecid (Sigma-Aldrich, Taufkirchen, Germany) and 10 mM HEPES (Sigma-Aldrich, Taufkirchen, Germany). The plates are then washed 2× with HBSS buffer, and HBSS buffer which additionally contains 0.1% BSA (bovine serum albumin; Sigma-Aldrich, Taufkirchen, Germany), 5.6 mM glucose and 0.05% gelatine (Merck KGaA, Darmstadt, Germany) is added. After a further incubation of 20 minutes at room temperature, the plates are inserted into the FLIPR for the Ca^2+ measurement. Alternatively, the plates are washed with buffer A (15 mM HEPES, 80 mM NaCl, 5 mM KCl, 1.2 mM CaCl2, 0.7 mM MgSO4, 2 g/l glucose, 2.5 mM probenecid), buffer A is added and the plates are loaded with 2.5 μM Fluo-4 and 0.025% Pluronic F127 (Sigma-Aldrich, Taufkirchen, Germany). Thereafter, the cells are washed 2× with buffer A and incubated for 30 minutes at room temperature with buffer A, which additionally contains 0.05% BSA and 0.05% gelatine, and thereafter inserted into the FLIPR for the Ca^2+ measurement. The Ca^2+-dependent fluorescence is measured here before and after addition of substances (λex=488 nm, λem=540 nm). Quantification is by measurement of the highest fluorescence intensity (FC, fluorescence counts) over time. The FLIPR protocol consists of 2 additions of substance. Test substances (10 μM) are first pipetted on to the cells and the Ca^2+ inflow is compared with the control (hB1R: Lys-Des-[…]-bradykinin>=50 nM; rB1R: Des-[…]-bradykinin 10 μM). This gives the result in % activation based on the Ca^2+ signal after addition of Lys-Des-[…]-bradykinin (>=50 nM) or Des-[…]-bradykinin (10 μM). After incubation for 10-20 minutes, Lys-Des-[…]-bradykinin (hB1R) or Des-[…]-bradykinin (rB1R) at the EC80 concentration is applied and the inflow of Ca^2+ is likewise determined. Antagonists lead to a suppression of the Ca^2+ inflow. The percent inhibition compared to the maximum achievable inhibition is calculated. In order to determine the IC50 value, the substances are added in various concentrations. […]

[2] = target: T2, B1R receptor of the rat (rB1R) (Rattus norvegicus, UniProt P97583); assay: Functional investigation on the bradykinin 1 receptor (B1R), FLIPR Ca2+ assay, rB1R cells; assay type: cell-based; settings: test substance 10 μM; CHO K1 cells transfected with rat B1R gene; Fluo-4 Ca2+ signal; agonist Des-Arg9-bradykinin at EC80; % of maximum achievable inhibition; read-out: B1R antagonism, rat [10 μM] % inhibition
T2 construct: expressed in transfected cells; host or cells: CHO K1 cells
T2 sequence (P97583 1-337): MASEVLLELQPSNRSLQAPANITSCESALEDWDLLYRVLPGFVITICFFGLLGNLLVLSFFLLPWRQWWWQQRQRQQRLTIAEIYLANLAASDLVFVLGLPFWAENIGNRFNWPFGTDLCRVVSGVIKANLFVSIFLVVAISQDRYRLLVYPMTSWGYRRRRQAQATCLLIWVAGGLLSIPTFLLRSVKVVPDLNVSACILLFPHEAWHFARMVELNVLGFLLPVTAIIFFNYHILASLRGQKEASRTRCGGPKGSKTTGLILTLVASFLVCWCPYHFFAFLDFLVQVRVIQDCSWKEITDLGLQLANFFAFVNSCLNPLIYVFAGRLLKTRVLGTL
Description: as §1

Row | inhibition at 10 µM [1] [%] | inhibition at 10 µM [2] [%] | Compound
1 | 96 | 98 | COc1cc(C)c(S(=O)(=O)N2CCCCC2CCCS(=O)(=O)N2CCN(C3CCN(C)CC3)CC2)c(C)c1 (stereo not shown) [Example 26, 1-(3-(1-(4-Methoxy-2,6-dimethylphenylsulfonyl)piperidin-2-yl)propylsulfonyl)-4-(1-methylpiperidin-4-yl)piperazine]
2 | 99 | 102 | COc1cc(C)c(S(=O)(=O)N2CCC[C@H]2CCCS(=O)(=O)N2CCC3(CCC(N4CC(F)(F)C4)CC3)CC2)c(C)c1 [Example 63, 9-(3,3-Difluoroazetidin-1-yl)-3-(3-((S)-1-(4-methoxy-2,6-dimethylphenylsulfonyl)pyrrolidin-2-yl)propylsulfonyl)-3-azaspiro[5.5]undecane]
3 | 100 | 96 | O=S(=O)(CCC[C@@H]1CCCN1S(=O)(=O)c1ccccc1C(F)(F)F)N1CCC2(CCN(c3ccncc3)CC2)CC1 [Example 68, 3-(Pyridin-4-yl)-9-(3-((S)-1-(2-(trifluoromethyl)phenylsulfonyl)pyrrolidin-2-yl)propylsulfonyl)-3,9-diazaspiro[5.5]undecane hydrochloride]
4 | 61 | 44 | Cc1cc(C)c(S(=O)(=O)N2CCCC2CCCCS(=O)(=O)N2CCC(CCN3CCCC3)CC2)c(C)c1 (stereo not shown) [Example 6, 1-(4-(1-(Mesitylsulfonyl)pyrrolidin-2-yl)butylsulfonyl)-4-(2-(pyrrolidin-1-yl)ethyl)piperidine]
5 | 99 | 101 | Cc1cccc(Cl)c1S(=O)(=O)N1CCCCC1CCCS(=O)(=O)N1CCC2(CCN(c3ccncc3)CC2)CC1 (stereo not shown) [Example 86, 3-(3-(1-(2-Chloro-6-methylphenylsulfonyl)piperidin-2-yl)propylsulfonyl)-9-(pyridin-4-yl)-3,9-diazaspiro[5.5]undecane]
6 | 102 | 84 | O=S(=O)(CCC[C@H]1CCCN1S(=O)(=O)c1ccc2ccccc2c1)N1CCN(c2ccncc2)CC1 [Example 2, (R)-1-(3-(1-(Naphthalen-2-ylsulfonyl)pyrrolidin-2-yl)propylsulfonyl)-4-(pyridin-4-yl)piperazine hydrochloride]
7 | 99 | 97 | Cc1cccc(Cl)c1S(=O)(=O)N1CCC[C@H]1CCCS(=O)(=O)N1CCC2(CCN(c3ccncc3)CC2)CC1 [Example 65, 3-(3-((S)-1-(2-Chloro-6-methylphenylsulfonyl)pyrrolidin-2-yl)propylsulfonyl)-9-(pyridin-4-yl)-3,9-diazaspiro[5.5]undecane]
8 | 26 | 32 | O=S(=O)(CCC[C@@H]1CCCN1S(=O)(=O)Cc1cccc(Cl)c1)N1CCC(Oc2ccncc2)CC1 [Example 70, (S)-4-(1-(3-(1-(3-Chlorobenzylsulfonyl)pyrrolidin-2-yl)propylsulfonyl)piperidin-4-yloxy)pyridine]

Row | Compound | inhibition at 10 µM [1] [%] | inhibition at 10 µM [2] [%]
9 | O=S(=O)(CCC[C@@H]1CCCN1S(=O)(=O)c1ccc2ccccc2c1)N1[C@@H]2CC[C@H]1C[C@H](Oc1ccncc1)C2 [Example 57, (1R,3R,5S)-8-(3-((S)-1-(Naphthalen-2-ylsulfonyl)pyrrolidin-2-yl)propylsulfonyl)-3-(pyridin-4-yloxy)-8-azabicyclo[3.2.1]octane] | 25 | 54
10 | O=S(=O)(CCC[C@@H]1CCCN1S(=O)(=O)c1cccc(Cl)c1Cl)N1[C@@H]2CC[C@H]1C[C@H](Oc1ccncc1)C2 [Example 60, (1R,3R,5S)-8-(3-((S)-1-(2,3-Dichlorophenylsulfonyl)pyrrolidin-2-yl)propylsulfonyl)-3-(pyridin-4-yloxy)-8-azabicyclo[3.2.1]octane] | 89 | 100
11 | O=S(=O)(CCC[C@@H]1CCCN1S(=O)(=O)c1ccc(Cl)cc1Cl)N1[C@@H]2CC[C@H]1C[C@H](Oc1ccncc1)C2 [Example 59, (1R,3R,5S)-8-(3-((S)-1-(2,4-Dichlorophenylsulfonyl)pyrrolidin-2-yl)propylsulfonyl)-3-(pyridin-4-yloxy)-8-azabicyclo[3.2.1]octane] | 94 | 96
